Results: ChEMBL document CHEMBL1141983, “QSAR of estrogen receptor modulators: exploring selectivity requirements for ER(alpha) versus ER(beta) binding of tetrahydroisoquinoline derivatives using E-state and physicochemical parameters” (Bioorg Med Chem Lett, 2005)

Key:
Estrogen receptor [1] = target: T1, Estrogen receptor (Homo sapiens, UniProt P03372)
T1 sequence (P03372 whole entry): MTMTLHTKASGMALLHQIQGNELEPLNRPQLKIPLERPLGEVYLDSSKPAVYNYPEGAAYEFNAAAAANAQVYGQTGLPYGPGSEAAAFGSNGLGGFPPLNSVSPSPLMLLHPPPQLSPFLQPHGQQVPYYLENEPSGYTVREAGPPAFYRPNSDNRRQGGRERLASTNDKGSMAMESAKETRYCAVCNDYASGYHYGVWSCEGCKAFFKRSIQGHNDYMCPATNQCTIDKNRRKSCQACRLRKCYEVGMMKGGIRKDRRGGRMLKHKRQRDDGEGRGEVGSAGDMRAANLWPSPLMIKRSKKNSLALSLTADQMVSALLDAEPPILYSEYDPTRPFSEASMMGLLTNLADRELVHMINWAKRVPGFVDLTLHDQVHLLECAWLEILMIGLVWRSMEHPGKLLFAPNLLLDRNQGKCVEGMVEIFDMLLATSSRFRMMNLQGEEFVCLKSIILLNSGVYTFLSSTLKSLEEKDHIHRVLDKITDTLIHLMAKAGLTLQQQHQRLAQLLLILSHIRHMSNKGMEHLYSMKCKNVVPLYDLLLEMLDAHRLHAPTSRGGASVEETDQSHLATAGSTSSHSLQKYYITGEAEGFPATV
Description: (§1) Inhibition of transcriptional activation by human estrogen receptor alpha

Estrogen receptor beta [2] = target: T2, Estrogen receptor beta (Homo sapiens, UniProt Q92731); test: Inhibition of binding to human estrogen receptor beta
T2 sequence (Q92731 whole entry): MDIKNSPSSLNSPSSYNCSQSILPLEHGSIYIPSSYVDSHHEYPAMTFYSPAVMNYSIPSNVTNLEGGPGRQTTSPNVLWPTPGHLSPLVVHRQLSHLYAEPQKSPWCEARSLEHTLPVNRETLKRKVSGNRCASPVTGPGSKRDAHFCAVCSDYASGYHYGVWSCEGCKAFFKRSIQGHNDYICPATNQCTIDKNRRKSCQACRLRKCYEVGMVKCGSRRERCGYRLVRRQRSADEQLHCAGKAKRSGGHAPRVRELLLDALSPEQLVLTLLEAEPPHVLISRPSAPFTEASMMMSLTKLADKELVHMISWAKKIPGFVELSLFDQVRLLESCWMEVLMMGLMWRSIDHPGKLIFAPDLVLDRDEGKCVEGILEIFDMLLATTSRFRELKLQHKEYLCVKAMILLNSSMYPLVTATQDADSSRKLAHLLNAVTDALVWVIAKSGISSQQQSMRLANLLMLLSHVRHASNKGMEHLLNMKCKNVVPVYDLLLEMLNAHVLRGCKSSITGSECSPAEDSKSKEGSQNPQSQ

Estrogen receptor beta [3] = target: T2, Estrogen receptor beta; test: Inhibition of transcriptional activation by human estrogen receptor beta
Estrogen receptor [4] = target: T1, Estrogen receptor; remark: listed apart in the source
Description: Inhibition of binding to human estrogen receptor alpha

Estrogen receptor [5] = target: T1, Estrogen receptor; remark: listed apart in the source
Description: as §1

| pIC50(uM) (Estrogen receptor [1]) | SMILES | other results |
| --- | --- | --- |
| 2.284 | CC(C)c1ccc(N2CCc3cc(O)ccc3C2(C)c2ccc(OCCN3CCCCC3)cc2)cc1 (stereo not given) | – |
| 2.585 | CC(C)c1ccc(N2CCc3cc(O)ccc3C2(C)c2ccc(OCCN3CCCC3)cc2)cc1 (stereo not given) | – |
| 2.509 | CC1(c2ccc(OCCN3CCCCC3)cc2)c2ccc(O)cc2CCN1c1ccc(Cl)cc1 (stereo not given) | – |
| 2.585 | CC1(c2ccc(OCCN3CCCCC3)cc2)c2ccc(O)cc2CCN1c1ccccc1 (stereo not given) | – |
| 2.796 | CC1(c2ccc(OCCN3CCCC3)cc2)c2ccc(O)cc2CCN1c1ccc(F)cc1 (stereo not given) | – |
| 2.347 | CC1(c2ccc(OCCN3CCCCC3)cc2)c2ccc(O)cc2CCN1c1cccc(Cl)c1 (stereo not given) | – |

More lines, now with the values behind:

| SMILES | pIC50(uM) (Estrogen receptor [1]) | other results |
| --- | --- | --- |
| CC1(c2ccc(OCCN3CCCC3)cc2)c2ccc(O)cc2CCN1c1cccc(F)c1 (stereo not given) | 2.523 | – |
| CC1(c2ccc(OCCN3CCCC3)cc2)c2ccc(O)cc2CCN1c1cccc(Cl)c1 (stereo not given) | 2.538 | – |
| CC1(c2ccc(OCCN3CCCCCC3)cc2)c2ccc(O)cc2CCN1c1ccccc1 (stereo not given) | 2.824 | – |
| CC1(c2ccc(OCCN3CCCC3)cc2)c2ccc(O)cc2CCN1c1ccccc1 (stereo not given) | 2.745 | – |
| CN(C)c1cccc(N2CCc3cc(O)ccc3C2c2ccc(OCCN3CCCCC3)cc2)c1 (stereo not given) | – | IC50 (Estrogen receptor beta [2]): 3.11 µM; IC50 (Estrogen receptor beta [3]): 2.18 µM; IC50 (Estrogen receptor [4]): 0.071 µM; IC50 (Estrogen receptor [5]): 0.0198 µM |
| CC1(c2ccc(OCCN3CCCCC3)cc2)c2ccc(O)cc2CCN1c1cccc(O)c1 (stereo not given) | 3.155 | – |
